# Assay results published in patent US9723842B2, “Isothiazolinone biocides enhanced by zinc ions” (ARCH CHEMICALS, INC., priority 2006, dated 2017).
# Read-outs that look alike come from different tables or passages of the source.
# Test system: Ps. aeruginosa
# Assay: Minimum inhibitory concentration against mono-cultures (microtitre plate, doubling dilutions)
# Format: cell-based, Pseudomonas aeruginosa (NCIB 10421)
# Settings: for MIC: Pseudomonas aeruginosa
# Method: Pseudomonas aeruginosa (NCIB 10421) maintained on nutrient agar, were used to study the synergy between BIT and ZnCl2. Bacteria were grown to stationary phase (approximately 24 hours) in nutrient broth (approximately 10^9 organisms per ml). A 0.1% (v/v) inoculum was used to seed fresh medium and 100 μl of the inoculum was then added to each well of a microtitre plate, except for the first well which contained 200 μl. Using doubling dilutions, the concentration of the compounds under investigation were varied in each well along the ordinate axis. The presence or absence of growth was recorded by visual inspection after 24 hours incubation at 37° C. Bacteria were grown to stationary phase (approximately 24 hours) in nutrient broth (approximately 10^9 organisms per ml). A 0.1% (v/v) inoculum was used to seed fresh medium and 100 μl of the inoculum was then added to each well of a microtitre plate, except for the first well which contained 200 μl. Using doubling dilutions, the concentration of the compounds under investigation were varied in each well along the ordinate axis. The presence or absence of growth was recorded by visual inspection after 24 hours incubation at 37° C.
# [1] = Comparative Example A, Table 10
Structure (SMILES),"MIC (ppm) against Ps. aeruginosa (Example 5, Table 8, column 1)","MIC (ppm) against Ps. aeruginosa (Example 5, Table 8, column 2)","MIC (ppm) against Ps. aeruginosa (Example 5, Table 8, column 3)","MIC (ppm) against Ps. aeruginosa (Example 5, Table 8, column 4)",MIC (ppm) against Ps. aeruginosa [1],"MIC (ppm) against Ps. aeruginosa (Example 2, Table 2, column 1)","MIC (ppm) against Ps. aeruginosa (Example 2, Table 2, column 2)","MIC (ppm) against Ps. aeruginosa (Example 2, Table 2, column 3)","MIC (ppm) against Ps. aeruginosa (Example 2, Table 2, column 4)",other results
"CCCCn1sc2ccccc2c1=O [BBIT, N-(n-butyl)-1,2-benzisothiazolin-3-one]",315 ppm,360 ppm,42 ppm,180 ppm,–,–,–,–,–,–
"O=c1[nH]sc2ccccc12 [BIT, 1,2-benzisothiazolin-3-one]",–,–,–,–,30 ppm,30 ppm,42 ppm,42 ppm,30 ppm,–
"Cn1sccc1=O [MIT, 2-methyl-4-isothiazolin-3-one]",–,–,–,–,–,–,–,–,–,"MIC (read-out: MIC (ppm) against Ps. aeruginosa, Example 4, Table 6, column 1): 9 µg/mL; MIC (read-out: MIC (ppm) against Ps. aeruginosa, Example 4, Table 6, column 2): 6 µg/mL; MIC (read-out: MIC (ppm) against Ps. aeruginosa, Example 4, Table 6, column 3): 10.5 µg/mL; MIC (read-out: MIC (ppm) against Ps. aeruginosa, Example 4, Table 6, column 4): 8 µg/mL"
"[Cl-].[Na+] [NaCl2, Sodium Chloride]",–,–,–,–,None detected (greater than 675) ppm,–,–,–,–,–
"[Cl-].[Cl-].[Zn+2] [ZnCl2, zinc chloride]",525 ppm,525 ppm,600 ppm,600 ppm,–,300 ppm,450 ppm,375 ppm,450 ppm,"MIC (ppm) against Ps. aeruginosa (Example 3, Table 4, column 1): 294 ppm; MIC (ppm) against Ps. aeruginosa (Example 3, Table 4, column 2): 294 ppm; MIC (ppm) against Ps. aeruginosa (Example 3, Table 4, column 3): 210 ppm; MIC (ppm) against Ps. aeruginosa (Example 3, Table 4, column 4): 600 ppm; MIC (ppm) against Ps. aeruginosa (Example 4, Table 6, column 1): 210 ppm; MIC (ppm) against Ps. aeruginosa (Example 4, Table 6, column 2): 210 ppm; MIC (ppm) against Ps. aeruginosa (Example 4, Table 6, column 3): 450 ppm; MIC (ppm) against Ps. aeruginosa (Example 4, Table 6, column 4): 450 ppm"
